Data on two compounds can be found in patent publication US20040081712A1, “Substance for treatment of non-insulin dependent diabetes mellitus, hypertension and/or the metabolic syndrome” (priority 2001, published 2004).

Data set [1] concerns GK rats. The experiment in a line: i.v. glucose tolerance test in GK rats. Format: in vivo, rat. Here is the method:
In the following examples, the type II diabetic Goto-Kakizaki (GK) rats originated from Takeda Chemical Ind., Tokyo, Japan and were bred locally.
As examples of the effects of a compound including the chemical formulas II, stevioside was tested on normal Wistar rats and on GK rats. 2.0 g glucose/kg body weight and 0.2 g stevioside/kg body weight were dissolved in 0.9% saline and infused intravenously. The plasma glucose and insulin levels were measured over a period of 2 hours.
The results are shown in FIGS. 2a, 2b, 3a and 3b, were the O-O series (n=6 for Wistar and n=14 for GK) illustrate glucose infused alone and the {circle over (2)}-{circle over (2)} series (n=6 for Wistar and n=12 for GK) illustrate the combined glucose and stevioside infusion. Data are given as mean±SEM.
During a glucose tolerance test, an intravenous bolus of stevioside of 0.2 g/kg body weight was injected in GK rats (the {circle over (2)}-{circle over (2)} serie (n=6)). GK rats receiving 0.9% saline intravenously served as controls (the O-O serie (n=6)). Glucose 2.0 g/kg body weight was administered as a bolus at timepoint 0 min. The plasma glucagon responses are shown as mean±SEM in FIGS. 5a (control) and 5b (GK). The plasma glucagon was suppressed in the stevioside treated GK rat.

Another data set concerns isolated mouse islets. In words: insulin secretion from isolated mouse islets. The note with it: for glucose-stimulated insulin secretion: 16.7 mmol/l, 10^−9-10^−3 mol/l; for maximal stimulatory dose: NMRI mouse islets. Format: cell-based. As for the experimental part: Islet from 6-10 NMRI mice were isolated and incubated in the presence of 16.7 mmol/l and 10^−9-10^−3 mol/l stevioside or 10^−9-10^−3 mol/l steviol. The results of these tests are illustrated in FIGS. 4a and 4b where each column represents mean±SEM from 24 incubations of single islets. Black bars in FIG. 4a indicate that stevioside is present and hatched bars indicate that stevioside is absent. Grey bars in FIG. 4b indicate that steviol is present and hatched bars indicate that steviol is absent. The influence of the maximal stimulatory doses of 10^−3 mol/l stevioside and 10^−6 mol/l steviol was studied in NMRI mouse islets over a range between 0 and 16.7 mmol/l glucose. […] Black bars in FIG. 7a indicate that stevioside is present and hatched bars indicate that stevioside is absent. Grey bars in FIG. 7b indicate that steviol is present and hatched bars indicate that steviol is absent.

In data set [2] the test system is GK rats. The experiment in a line: blood pressure during 6 weeks treatment of GK rats. The following applies: 0.025 g/kg body weight/24 h in drinking water. The data set is classed as in vivo, rat. As for the experimental part:
GK rats were treated with stevioside 0.025 g/kg body weight/24 h for 6 weeks. Stevioside was administered in the drinking water. GK rats receiving drinking water with 0.111 g D-glucose/kg body weight/24 h served as controls. Systolic (FIG. 6a, control: O-O series, stevioside-treated: {circle over (2)}-{circle over (2)} series) and diastolic (FIG. 6b, control: O-O series, stevioside-treated: {circle over (2)}-{circle over (2)} series) blood pressures were measured on the tail.

Data set [3] concerns type II diabetic patients. The experiment in a line: acute paired cross-over test meal study. The data set is classed as in vivo, human. The note with it: 1 g orally with standard meal. From the text:
Twelve type II diabetic patients (4 female/8 males) with a mean age of 65.8±1.6 years, a diabetes duration of 6.0±1.3 years, a mean body mass index of 28.5±1.0, and a mean glycated hemoglobin HbAlc of 7.4+0.4 percent were included in the study. The experiment was an acute, paired, cross-over study in which two test meals were served during the experiments (A: Standard meal supplemented with 1 g of stevioside given orally; B: Standard meal given together with 1 g of gelatine (placebo) given orally. The total energy content of the test meals was 1725 kJ (protein 16 E %, fat 30 E %, carbohydrate 54 E %). Blood samples were drawn from an antecubital vein 30 minutes before and 240 minutes after ingestion of the test meal. The arterial blood pressure was continuously monitored during the experiment. Students paired t-test was used for comparing the effects of stevioside with placebo on the parameters measured. Data are given as mean±SEM.

Another data set relates to Goto-Kakizaki rats. The experiment in a line: four-week test diets with glucose tolerance test in Goto-Kakizaki rats. Format: in vivo, rat. As for the experimental part: In the following example is the term “Soy” defined as a composition comprising 65 weight-% soy protein, at least 0.2 weight-% isoflavones and 18 weight-% soy dietary fibres, mostly cotyledon fibres. “Altromin” is a standard carbohydrate rich laboratory animal diet.” Four test diets, A, B, C and D as defined below, were administered for four weeks to four groups of adult rats. A: Altromin; n=12 (Alt). B: Altromin supplemented with stevioside; n=12; (Alt+Ste). C: 80% Soy plus 20% Altromin; n=12; (Soy). D: 80% Soy plus 20% Altromin plus stevioside; n=12; (Soy+Ste) Each experimental group consisted of twelve female Goto-Kakizaki with an age of 9 weeks. The rats received the stevioside (0.025 g/kg body weight/day) with the drinking water. By the end of the third experimental week intra-arterial catheters were implanted into the carotid artery thereby enabling blood sampling during a 240 minutes glucose-tolerance test which was carried out by the end of the experiment at week 4. Blood samples were drawn after a bolus infusion of 2.0 g D-glucose/kg body weight. Plasma concentrations of glucose, insulin, and glucagon were measured during the glucose tolerance test. Immediately before the glucose tolerance test fasting levels of triglycerides and cholesterol were determined. Concomitantly, the systolic blood pressure was measured using a tail cuff. (Plasma glucose was measured using MPR 3, 166 391, Glucose/GOD-PAP Method from Boehringer Mannheim) (Plasma insulin was measured using Sensitive Rat Insulin RIA, Cat # SRI-13K from Linco) (Plasma glucagon was measured using Glucagon RIA, Cat # GL-32K from Linco) (Blood pressure was measured using TSE Non-Invasive Blood Pressure Monitoring System from Technical Scientific Equipment GmbH) (Plasma cholesterol was measured GOD-PAP from Roche and triglycerides was measured using GHOD-PAP from Roche)

Data set [4] is described as follows: stevioside infusion at normal blood glucose. Format: in vivo. The following applies: bolus or constant intravenous infusion.
For data set [5], the system named is rats. In words: intravenous administration to rats. The note with it: rat, in vivo.
For data set [6] the following is noted: rats; cited from earlier work.
The conditions of data set [7]: isolated perfused rat liver; cited from earlier work.
Data set [8] deals with Salmonella typhimurium strains. The note with it: cited from earlier work.
The conditions of data set [9]: another study; cited from earlier work.
A further data set has as its system F344 rats. The following applies: cited from earlier work.
The subject of data set [10] is hamsters. The note with it: doses as high as 2.5 g/kg body weight/day; cited from earlier work.
In data set [11] the test system is isolated normal pancreatic rat islets. The note with it: 7 mmol/l D-glucose, 1,0 mmol/l; cited from earlier work.
Data set [12] relates to spontaneously hypertensive rats. The following applies: intravenously 200 mg/kg; cited from earlier work.
Another data set relates to mice. The note with it: mouse, in vivo; cited from earlier work.
For data set [13], the system named is rats. The note with it: rat, in vivo; cited from earlier work.
The test system of data set [14] is hamsters. The note with it: cited from earlier work.

Entries after “also recorded” stand apart in the source; their conditions may differ.

Regarding `C=C1C[C@@]23CC[C@H]4[C@@](C)(CCC[C@@]4(C)C(=O)O[C@@H]4O[C@H](CO)[C@@H](O)[C@H](O)[C@H]4O)[C@@H]2CC[C@]1(O[C@@H]1O[C@H](CO)[C@@H](O)[C@H](O)[C@H]1O[C@@H]1O[C@H](CO)[C@@H](O)[C@H](O)[C@H]1O)C3` [stevioside], the “time after which significant decrease of plasma glucose was observed” value in the data set on GK rats [1] (2.0 g glucose/kg + 0.2 g stevioside/kg i.v.) worked out at 30 min. Besides, in the data set on GK rats [1] (2.0 g glucose/kg + 0.2 g stevioside/kg i.v., 2 hours), the plasma glucose response entry was “inhibited blood glucose responses; also recorded: diminished glucose response”. Moreover, in the data set with GK rats [1] (2.0 g glucose/kg + 0.2 g stevioside/kg i.v., compared to the Wistar rat), the plasma insulin response result was “pronounced increase in the insulin response”. Also, the plasma glucagon response entry with GK rats [1] (i.v. bolus 0.2 g/kg, glucose 2.0 g/kg) is reported as “suppressed”. In the data set with isolated mouse islets, the glucose-stimulated insulin secretion result is given as “capable of potentiating glucose-stimulated insulin secretion” and the maximal stimulatory dose is on record as 10^−3 mol/l. Further, in the data set with GK rats [2], the “time of treatment after which decrease in blood pressure was detectable” value came to 2 weeks. Besides, the “decrease in the blood pressure” value in the data set with GK rats [2] (6 weeks, systolic and diastolic, tail) is 10-15%. Besides, in data set [3], the “absolute IAUC postprandial blood glucose” value was 522±64 mmol/l x 240 min, the “insulin response (IAUC)” value was “the difference did not reach statistical significance”, the postprandial glucagon levels is reported as 281±33 and the “reduction of postprandial blood glucose response compared to placebo” value is 18±5%. Besides, the “area under the plasma-glucagon response curve, in words” value with Goto-Kakizaki rats (both Altromin and soy groups) was “significantly reduced”. For the same compound, in the data set on Goto-Kakizaki rats (glucose tolerance test), the “area under the glucose response curve, in words” value was “reduced the incremental area (IAUC) under the glucose response curve”; the “first phase insulin response, in words” value is “significantly improved the first phase insulin responses”; the “insulin response curve 0 to 240 minutes, in words” value is reported as “did not alter the insulin responses”. In addition, the “fasting triglyceride levels, in words” value in the data set with Goto-Kakizaki rats (rat, in vivo) is recorded as “significant suppression of the fasting triglyceride levels”. Further, the “suppression of the systolic blood pressure (Δ)” value in the data set with Goto-Kakizaki rats (stevioside in combination with Altromin) was −28 mmHg. In the data set on Goto-Kakizaki rats (stevioside in combination with soy), the “suppression of the systolic blood pressure (Δ)” value is −21 mmHg. In addition, the hypoglycemia entry in data set [4] was “did not cause any hypoglycemia”. For the same compound, the “effect when administered intravenously to rats” value in the data set with rats [5] is “anti-hyperglycemic, glucagonostatic and insulinotropic effect”. Further, in data set [6], the route of excretion entry was “excreted by the urine”. The metabolism entry in data set [7] is recorded as “not metabolised”. Moreover, in data set [8], the mutagenic effect result was “no mutagenic effect”. The mutagenicity entry in [9] was “not mutagenic”. Further, in the data set on F344 rats, the carcinogenicity entry is “not carcinogenic”. In the data set with hamsters [10], the “effect on growth or reproduction” value was “no effect on growth or reproduction”. Moreover, the insulin output entry in data set [11] was “significant increase in insulin output”. For the same compound, the “fall in the systolic blood pressure” value in [12] was “only small”.
Consider `C=C1C[C@@]23CC[C@H]4[C@@](C)(CCC[C@@]4(C)C(=O)O)[C@@H]2CC[C@]1(O)C3` [steviol], for which, in the data set on isolated mouse islets, the “stimulation of insulin secretion, steviol compared with stevioside” value is given as “stimulate the insulin secretion to a greater extent”. Further, in the data set on isolated mouse islets, the glucose-stimulated insulin secretion result is recorded as “capable of potentiating glucose-stimulated insulin secretion”. For the same compound, in the data set with isolated mouse islets, the maximal stimulatory dose is 10^−6 mol/l. Further, in the data set on rats [5], the “effect when administered intravenously to rats” value was “anti-hyperglycemic, glucagonostatic and insulinotropic effect”. Further, the mutagenic effect result in data set [8] is given as “no mutagenic effect”. The mutagenicity entry in data set [9] was “dose-related positive responses”. The LD50 entry was “higher than 15 g/kg body weight” with mice; “higher than 15 g/kg body weight” in the data set on rats [13]; 5-6 g/kg body weight in the data set on hamsters [14] (hamster, in vivo). Further, the “pathology accompanying lethal dose” value in the data set on hamsters [14] (hamsters) is reported as “degeneration of the proximal tubular cells”.
